Settings: in water

Row | Compound | solubility (mole fraction) (293.15 K) | solubility (mole fraction) (298.15 K) | solubility (mole fraction) (303.15 K) | solubility (mole fraction) (308.15 K) | solubility (mole fraction) (313.15 K) | solubility (mole fraction) (318.15 K) | solubility (mole fraction) (323.15 K)
1 | CCn1cc(C(=O)O)c(=O)c2cc(F)c(N3CCNCC3)cc21 | 2.02e-05 | 2.27e-05 | 2.54e-05 | 2.92e-05 | 3.38e-05 | 3.93e-05 | 4.69e-05
2 | CCn1cc(C(=O)O)c(=O)c2cnc(N3CCNCC3)nc21 | 1.85e-05 | 2.04e-05 | 2.3e-05 | 2.63e-05 | 3.02e-05 | 3.4e-05 | 3.83e-05
3 | CCn1cc(C(=O)O)c(=O)c2cc(F)c(N3CCNC(C)C3)c(F)c21 (stereo unspecified) | 3.48e-05 | 3.77e-05 | 4.33e-05 | 4.9e-05 | 5.63e-05 | 6.54e-05 | 7.57e-05

From BigSolDB 2.1
